Patent publication US9586973B2, “HDAC6 inhibitors and uses thereof” (Universiteit Gent, priority 2013, dated 2017)
Like-named read-outs stand apart in the source and are kept apart here.

Key:
HDAC8 = target: T1, HDAC8 (Homo sapiens, UniProt Q9BY41); experiment: HDAC8 inhibition (selectivity); type: biochemical
T1 sequence (Q9BY41 1-377): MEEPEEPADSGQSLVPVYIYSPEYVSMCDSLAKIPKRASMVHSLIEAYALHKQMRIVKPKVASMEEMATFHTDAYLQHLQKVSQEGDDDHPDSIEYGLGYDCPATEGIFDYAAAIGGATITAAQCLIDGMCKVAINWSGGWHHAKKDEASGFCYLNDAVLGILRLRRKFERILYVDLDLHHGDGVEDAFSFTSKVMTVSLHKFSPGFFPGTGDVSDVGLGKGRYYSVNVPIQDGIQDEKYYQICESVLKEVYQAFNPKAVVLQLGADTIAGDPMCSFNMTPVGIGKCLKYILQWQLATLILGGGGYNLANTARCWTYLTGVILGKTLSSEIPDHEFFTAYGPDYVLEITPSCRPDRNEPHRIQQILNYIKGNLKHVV

HDAC11 = target: T2, HDAC11 (Homo sapiens, UniProt Q96DB2); experiment: HDAC11 inhibition (selectivity); type: biochemical; conditions: for HDAC 11 inhibitory effect: no IC50 values could be obtained
T2 sequence (Q96DB2 1-347): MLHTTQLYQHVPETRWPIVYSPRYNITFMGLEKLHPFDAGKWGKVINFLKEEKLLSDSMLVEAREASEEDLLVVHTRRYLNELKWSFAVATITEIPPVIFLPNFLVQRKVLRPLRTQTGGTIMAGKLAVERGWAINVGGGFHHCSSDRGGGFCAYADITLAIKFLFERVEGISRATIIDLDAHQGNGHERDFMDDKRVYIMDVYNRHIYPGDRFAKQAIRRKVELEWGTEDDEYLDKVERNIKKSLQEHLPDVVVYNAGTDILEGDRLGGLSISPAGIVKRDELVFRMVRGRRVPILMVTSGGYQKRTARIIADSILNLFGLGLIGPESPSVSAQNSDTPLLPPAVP

[1] = system: MDA MB 231 human mammary adenocarcinoma cells; experiment: Collagen invasion assay; type: cell-based; conditions: for inhibition of invasion of cells into collagen type I gel: 24 hours, FIG. 4
From the text: Tissue invasion requires infiltration into an extracellular matrix (ECM) dominated by networks of collagen type I. The invasion model consists of native, acid-extracted rat tail collagen type I containing nonhelical telopeptides situated at the N- and C-terminal ends. These telopeptides play an important role in intermolecular covalent cross-links necessary for a gel architecture presenting itself as a structural barrier to cancer cell traffic. […] The collagen type I solution was gently poured into the wells of a 6-well plate. The experimental set-up was placed at 37° C. in a humidified atmosphere with 10% CO2 in air for at least 1 h. […] Invasion is calculated as the percentage of invading cells per high powered field and is expressed as the mean and standard deviation.
Compound 7c (10 μg/ml) and paclitaxel (1 μg/ml) were tested in the assay. As a control, cells in medium without additional compounds was used. The effect of the solvent of compound 7c (1% DMSO) was measured as well.

[2] = MTT assay, inhibition of cell proliferation; conditions: tested at 0.01, 0.1, 1 and 10 μg/ml; FIG. 3
HDAC4 = HDAC4 (Homo sapiens, UniProt P56524); experiment: HDAC4 inhibition (selectivity); type: biochemical
HDAC6 = target: T3, HDAC6 (Homo sapiens, UniProt Q9UBN7); experiment: biochemical; conditions: for inhibition at 10 µM: read-out: % inhibition HDAC6
T3 sequence (Q9UBN7 1-1215): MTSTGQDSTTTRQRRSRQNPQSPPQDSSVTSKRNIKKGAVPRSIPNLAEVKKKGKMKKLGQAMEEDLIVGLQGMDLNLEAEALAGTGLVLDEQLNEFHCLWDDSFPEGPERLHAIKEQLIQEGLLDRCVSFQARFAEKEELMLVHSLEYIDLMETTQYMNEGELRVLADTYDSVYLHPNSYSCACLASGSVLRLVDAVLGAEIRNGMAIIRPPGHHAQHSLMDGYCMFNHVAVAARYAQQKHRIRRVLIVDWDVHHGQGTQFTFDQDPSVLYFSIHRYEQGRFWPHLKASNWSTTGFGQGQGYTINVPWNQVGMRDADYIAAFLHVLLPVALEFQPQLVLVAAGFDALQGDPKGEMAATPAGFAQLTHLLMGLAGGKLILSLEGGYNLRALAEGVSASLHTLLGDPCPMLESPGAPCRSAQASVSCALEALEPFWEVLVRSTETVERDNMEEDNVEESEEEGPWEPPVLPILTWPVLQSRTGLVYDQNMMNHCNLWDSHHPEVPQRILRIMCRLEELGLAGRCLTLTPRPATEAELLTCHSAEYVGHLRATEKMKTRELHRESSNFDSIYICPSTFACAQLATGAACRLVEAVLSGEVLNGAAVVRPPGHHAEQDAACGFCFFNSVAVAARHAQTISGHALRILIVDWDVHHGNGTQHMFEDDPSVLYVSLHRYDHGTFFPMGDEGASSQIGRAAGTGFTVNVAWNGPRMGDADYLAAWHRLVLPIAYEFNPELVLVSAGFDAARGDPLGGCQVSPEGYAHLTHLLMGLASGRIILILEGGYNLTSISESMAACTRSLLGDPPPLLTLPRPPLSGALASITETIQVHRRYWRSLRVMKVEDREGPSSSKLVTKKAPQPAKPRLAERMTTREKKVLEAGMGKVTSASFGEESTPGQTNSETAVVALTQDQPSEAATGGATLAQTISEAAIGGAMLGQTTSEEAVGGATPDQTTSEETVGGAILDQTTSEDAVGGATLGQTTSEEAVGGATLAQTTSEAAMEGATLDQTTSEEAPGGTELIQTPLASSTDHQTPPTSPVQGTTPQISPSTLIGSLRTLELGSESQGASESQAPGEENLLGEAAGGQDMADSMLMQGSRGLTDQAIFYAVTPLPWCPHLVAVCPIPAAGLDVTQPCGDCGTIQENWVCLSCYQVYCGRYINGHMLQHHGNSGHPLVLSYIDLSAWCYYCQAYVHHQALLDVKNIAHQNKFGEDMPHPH

HDAC1 = HDAC1 (Homo sapiens, UniProt Q13547); experiment: HDAC1 inhibitory activity (in vitro pharmacology); type: biochemical; conditions: for inhibition at 10 µM: read-out: % inhibition HDAC1
[3] = system: MO4 mouse fibrosarcoma cells; experiment: SRB assay, inhibition of cell proliferation; type: cell-based; conditions: tested at 0.01, 0.1, 1 and 10 μg/ml, FIG. 2
Experimental: The sulforhodamine B (SRB) assay is used for cell density determination, and is based on the measurement of cellular protein content (“biomass”)^12,13. The method has been optimized for the screening of compounds for growth effects on adherent cells in a 96-well format. After an incubation period with the compound of the invention, cell monolayers (MO4 mouse fibrosarcoma cells) are fixed with 50% (wt/vol) trichloroacetic acid for 1 hour and stained with SRB for 30 min, after which the excess dye is removed by washing repeatedly with 1% (vol/vol) […]. The protein-bound dye is dissolved in 10 mM Tris base solution for OD determination at 570 nm using a microplate reader. […] The method allows to test a large number of samples within a few days, and is a quantitative assay for growth inhibition by microtubule inhibitors.

[4] = read-out: IC50 values for HDAC6 inhibition, Table 3 and text

Sequence of HDAC4 (P56524 whole entry, species assumed): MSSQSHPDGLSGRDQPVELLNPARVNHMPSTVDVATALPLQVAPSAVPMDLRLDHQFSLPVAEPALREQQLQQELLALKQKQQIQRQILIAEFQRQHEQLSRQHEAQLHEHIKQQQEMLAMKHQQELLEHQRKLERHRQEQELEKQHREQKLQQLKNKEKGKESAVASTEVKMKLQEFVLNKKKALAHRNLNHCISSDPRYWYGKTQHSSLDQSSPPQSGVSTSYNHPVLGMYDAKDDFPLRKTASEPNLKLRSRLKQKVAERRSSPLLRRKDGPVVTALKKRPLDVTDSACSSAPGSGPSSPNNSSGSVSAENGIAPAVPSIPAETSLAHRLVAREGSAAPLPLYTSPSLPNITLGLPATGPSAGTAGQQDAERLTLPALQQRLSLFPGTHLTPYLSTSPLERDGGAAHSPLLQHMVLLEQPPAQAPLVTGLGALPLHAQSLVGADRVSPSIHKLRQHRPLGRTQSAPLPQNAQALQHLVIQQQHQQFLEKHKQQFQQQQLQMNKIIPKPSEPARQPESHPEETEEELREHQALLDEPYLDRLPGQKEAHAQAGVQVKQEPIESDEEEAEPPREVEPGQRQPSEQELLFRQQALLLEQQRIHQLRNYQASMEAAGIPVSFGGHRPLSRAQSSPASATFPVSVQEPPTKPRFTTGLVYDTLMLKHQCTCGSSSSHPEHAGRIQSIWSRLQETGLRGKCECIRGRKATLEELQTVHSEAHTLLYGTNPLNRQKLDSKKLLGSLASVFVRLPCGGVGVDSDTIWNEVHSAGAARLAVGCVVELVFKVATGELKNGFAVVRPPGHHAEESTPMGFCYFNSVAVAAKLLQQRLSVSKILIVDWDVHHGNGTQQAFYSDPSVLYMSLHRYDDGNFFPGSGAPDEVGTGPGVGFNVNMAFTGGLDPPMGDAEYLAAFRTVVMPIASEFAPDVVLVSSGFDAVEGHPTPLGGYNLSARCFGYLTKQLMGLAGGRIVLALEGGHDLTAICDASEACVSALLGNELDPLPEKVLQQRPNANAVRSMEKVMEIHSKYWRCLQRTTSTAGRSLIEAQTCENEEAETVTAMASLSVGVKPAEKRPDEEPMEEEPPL
Sequence of HDAC1 (Q13547 whole entry, species assumed): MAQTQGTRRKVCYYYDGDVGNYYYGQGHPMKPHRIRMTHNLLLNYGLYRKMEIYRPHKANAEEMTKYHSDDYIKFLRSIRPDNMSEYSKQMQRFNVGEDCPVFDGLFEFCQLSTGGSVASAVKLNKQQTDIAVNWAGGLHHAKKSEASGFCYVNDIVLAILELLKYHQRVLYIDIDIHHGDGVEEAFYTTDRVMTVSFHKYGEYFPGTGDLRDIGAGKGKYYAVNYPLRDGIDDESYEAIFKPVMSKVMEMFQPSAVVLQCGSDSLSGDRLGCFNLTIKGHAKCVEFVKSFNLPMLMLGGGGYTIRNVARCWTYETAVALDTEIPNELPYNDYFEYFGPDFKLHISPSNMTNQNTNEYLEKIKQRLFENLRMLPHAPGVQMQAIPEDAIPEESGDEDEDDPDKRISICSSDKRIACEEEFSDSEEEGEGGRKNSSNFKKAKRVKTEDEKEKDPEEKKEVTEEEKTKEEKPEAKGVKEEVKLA

Compound	IC50 (HDAC8) [µM]	inhibition of cell proliferation, MTT assay [2]	IC50 (HDAC4) [µM]	HDAC6 versus HDAC8 selectivity (HDAC6) [fold]	IC50 (HDAC6) [µM]	inhibition at 10 µM (HDAC6) [%]	IC50 (HDAC6; read-out: HDAC6 IC50, Table 4) [µM]	IC50 (HDAC6; [4]) [µM]	IC50 (HDAC1) [µM]	inhibition at 10 µM (HDAC1) [%]	inhibition of cell proliferation, SRB assay [3]	further results
O=C(NO)c1ccc(Cn2c3c(c4cc(F)ccc42)CSCC3)cc1 [Compound 7c, N-(4-Hydroxycarbamoylbenzyl)-6-fluoro-1,2,4,9-tetrahydro-3-thia-9-azafluorene]	2.8	inhibition of cell proliferation	1.5	127	0.022	99	0.022	0.022	21	17	inhibit cell proliferation	IC50 (HDAC11): 9.7 µM; inhibition of invasion of cells into collagen type I gel ([1]; 10 μg/ml, compared to solvent control (1% DMSO)): inhibits invasion; inhibition of invasion of cells into collagen type I gel ([1]; 10 μg/ml, compared to solvent control (1% DMSO), listed as 7C): inhibition of invasion; histology of invasion ([1]; after 14 days): confirmed inhibition of invasion; inhibition of cell proliferation, SRB assay ([3]; listed as 7C): inhibition of cell proliferation
O=C(NO)c1ccc(Cn2c3c(c4cc(F)ccc42)CS(=O)(=O)CC3)cc1 [Compound 10c, N-(4-Hydroxycarbamoylbenzyl)-6-fluoro-1,2,4,9-tetrahydro-3-thia-9-azafluorene-3,3-dioxide]	0.93		1.9	251	0.0037	99	0.0037	0.0037	12	53		HDAC 11 inhibitory effect (HDAC11): very low; HDAC6 versus HDAC4 selectivity (HDAC6): 513 fold; selectivity against HDAC1 (HDAC6 vs HDAC1) (HDAC6): 3243 fold; Selectivity = IC50 (HDAC1)/IC50 (HDAC6) (HDAC6; Table 5): 3243; IC50 (HDAC6; read-out: HDAC6 IC50, Table 5): 0.0037 µM; IC50 (HDAC1; read-out: HDAC1 IC50, Table 5): 12 µM
COc1cc(C(=O)NO)ccc1Cn1c2c(c3ccccc31)CS(=O)(=O)CC2 [Compound 10b]					2	73				2		
COc1cc(C(=O)NO)ccc1Cn1c2c(c3cc(F)ccc31)CS(=O)(=O)CC2 [Compound 10d]					1.3	75				8		
O=C(NO)c1ccc(Cn2c3c(c4ccccc42)CS(=O)(=O)CC3)cc1 [Compound 10a, N-(4-Hydroxycarbamoylbenzyl)-1,2,4,9-tetrahydro-3-thia-9-azafluorene-3,3-dioxide]	1.7		1.6	895	0.0019	99	0.0019	0.0019	11	51		HDAC 11 inhibitory effect (HDAC11): very low; HDAC6 versus HDAC4 selectivity (HDAC6): 842 fold; selectivity against HDAC1 (HDAC6 vs HDAC1) (HDAC6): 5789 fold; Selectivity = IC50 (HDAC1)/IC50 (HDAC6) (HDAC6; Table 5): 5789; IC50 (HDAC6; read-out: HDAC6 IC50, Table 5): 0.0019 µM; IC50 (HDAC1; read-out: HDAC1 IC50, Table 5): 11 µM
O=C(NO)c1ccc(Cn2c3c(c4ccccc42)CSCC3)cc1 [Compound 7a, N-(4-Hydroxycarbamoylbenzyl)-1,2,4,9-tetrahydro-3-thia-9-azafluorene]		inhibition of cell proliferation			0.015	99				26	inhibit cell proliferation	inhibition of cell proliferation, SRB assay ([3]; listed as 7A): inhibition of cell proliferation
CC(=O)O[C@H]1C(=O)[C@@]2(C)[C@H]([C@H](OC(=O)c3ccccc3)[C@]3(O)C[C@H](OC(=O)[C@H](O)[C@@H](NC(=O)c4ccccc4)c4ccccc4)C(C)=C1C3(C)C)[C@]1(OC(C)=O)CO[C@@H]1C[C@@H]2O [Paclitaxel, reference compound]		inhibition of cell proliferation									inhibition of cell proliferation	inhibition of invasion of cells into collagen type I gel ([1]; 1 μg/ml): inhibition of invasion
